Results from patent US20060069132A1, “Azolecarboxamide herbicides” (priority 2004, published 2006).
Read-outs that look alike come from different tables or passages of the source.

How the values were obtained:
velvetleaf [1] = experiment: Test A pre-/postemergence herbicide test; assay type: in vivo, Abutilon theophrasti
How it was run: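 Seeds sown in sandy loam received a preemergence directed soil spray of compound in non-phytotoxic solvent with surfactant; postemergence plants (2–10 cm, one- to two-leaf stage) were sprayed to runoff at the same time. After ~10 days in greenhouse, injury was rated visually versus untreated controls (0 = no effect, 100 = complete control).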

velvetleaf [2] = experiment: Test B pre-/postemergence herbicide test; assay type: in vivo, Abutilon theophrasti; conditions: for pest or weed control at 500 g/ha / pest or weed control at 125 g/ha: Abutilon theophrasti, 336 h
How it was run: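 Test chemicals in a non-phytotoxic solvent mixture with surfactant were applied preemergence to seeded species and postemergence to plants 2-18 cm tall (1- to 4-leaf stage); rice and barnyardgrass were also tested in a flooded paddy at the 2-leaf stage. Visual rating versus controls after 13-15 days in greenhouse, scale 0 (no effect) to 100 (complete control).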

bermudagrass = experiment: Test C pre-/postemergence herbicide test; assay type: in vivo, Cynodon dactylon
How it was run: (§1)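 Seeds were planted and sprayed preemergence with test chemicals in a non-phytotoxic solvent mixture containing surfactant; postemergence treatments went onto plants 2 to 18 cm tall (1- to 4-leaf stage). After 12 to 14 days in a greenhouse, injury was rated visually against untreated controls on a 0–100 scale.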

cocklebur = experiment: Test C pre-/postemergence herbicide test; assay type: in vivo, Xanthium strumarium
How it was run: as §1

large crabgrass = experiment: Test C pre-/postemergence herbicide test; assay type: in vivo, Digitaria sanguinalis; conditions: for Crabgrass, Large plant response rating: 500 g ai/ha
How it was run: as §1

kochia = experiment: Test C pre-/postemergence herbicide test; assay type: in vivo, Kochia scoparia; conditions: for Kochia plant response rating: 500 g ai/ha
How it was run: as §1

yellow nutsedge = experiment: Test C pre-/postemergence herbicide test; assay type: in vivo, Cyperus esculentus; conditions: for Nutsedge, Yellow plant response rating: 500 g ai/ha
How it was run: as §1

soybean = experiment: Test C pre-/postemergence herbicide test; assay type: in vivo, Glycine max; conditions: for Soybean plant response rating: 500 g ai/ha
How it was run: as §1

ducksalad = experiment: Test C flooded paddy test; assay type: in vivo, Heteranthera limosa
[3] = 125 g ai/ha, scale 0 (no effect) to 100 (complete control), visual, 12 to 14 days, preemergence
[4] = 250 g ai/ha, scale 0 to 100 (0 no effect, 100 complete control), visual, 12 to 14 days, preemergence
[5] = Postemergence, 500 g ai/ha, scale 0 to 100
[6] = Preemergence, 500 g ai/ha, scale 0 to 100, 0 no effect, 100 complete control
[7] = postemergence, 62 g ai/ha, scale 0 to 100
[8] = Postemergence, 125 g ai/ha, scale 0 to 100, 0 no effect, 100 complete control
[9] = Postemergence, 250 g ai/ha, scale 0 to 100, 0 no effect, 100 complete control
[10] = Preemergence, scale 0 to 100, 0 no effect, 100 complete control

C#CCNC(=O)c1cccc(NC(=O)c2cc(C(C)(C)C)nn2CC)c1 [Compound 47]
Plant response rating, Velvetleaf (velvetleaf [1]; Postemergence, 2000 g ai/ha, 0 to 100 scale, 0 no effect, 100 complete control): 40 | Velvetleaf plant response rating (velvetleaf [1]; Preemergence, 500 g ai/ha, visual rating, 0 to 100 scale (0 no effect, 100 complete control)): 20 | Velvetleaf plant response rating (velvetleaf [1]; Preemergence, 2000 g ai/ha, 0 to 100 scale, 0 no effect, 100 complete control): 95 | Plant response rating, Velvetleaf (velvetleaf [2]; Postemergence, 500 g ai/ha, visual rating after 13 to 15 days, scale 0 (no effect) to 100 (complete control)): 70 | Velvetleaf plant response rating (velvetleaf [2]; Preemergence, 500 g ai/ha, scale 0 to 100): 100 | Plant response rating, Velvetleaf (velvetleaf [2]; preemergence, 125 g ai/ha, 0 to 100 scale, 0 is no effect, 100 is complete control): 30 | Plant response rating (0 = no effect, 100 = complete control), Bermudagrass (bermudagrass; 62 g ai/ha, preemergence): 90 | Plant response rating, Bermudagrass (bermudagrass; [3]): 100 | Plant response rating, Bermudagrass (bermudagrass; [4]): 100 | Bermudagrass plant response rating (bermudagrass; [5]): 60 | Bermudagrass plant response rating (bermudagrass; [6]): 100 | Plant response rating, Bermudagrass (bermudagrass; [7]): 60 | Plant response rating (0 = no effect, 100 = complete control), Cocklebur (cocklebur; 62 g ai/ha, preemergence): 0 | Plant response rating, Cocklebur (cocklebur; [3]): 0 | Plant response rating, Cocklebur (cocklebur; [4]): 0 | Cocklebur plant response rating (cocklebur; [5]): 90 | Plant response rating, Cocklebur (cocklebur; [8]): 70 | Plant response rating, Cocklebur (cocklebur; [9]): 70 | Cocklebur plant response rating (cocklebur; [6]): 100 | Plant response rating, Cocklebur (cocklebur; [7]): 50 | Plant response rating (0 = no effect, 100 = complete control), Crabgrass, Large (large crabgrass; 62 g ai/ha, preemergence): 100 | Plant response rating, Crabgrass, Large (large crabgrass; [3]): 100 | Plant response rating, Crabgrass, Large (large crabgrass; [4]): 100 | Crabgrass, Large plant response rating (large crabgrass; Postemergence, scale 0 to 100): 90 | Crabgrass, Large plant response rating (large crabgrass; [10]): 100 | Plant response rating, Crabgrass, Large (large crabgrass; [7]): 90 | Plant response rating (0 = no effect, 100 = complete control), Kochia (kochia; 62 g ai/ha, preemergence): 10 | Plant response rating, Kochia (kochia; [3]): 10 | Plant response rating, Kochia (kochia; [4]): 10 | Kochia plant response rating (kochia; Postemergence, scale 0 to 100): 100 | Plant response rating, Kochia (kochia; [8]): 100 | Plant response rating, Kochia (kochia; [9]): 100 | Kochia plant response rating (kochia; [10]): 40 | Plant response rating, Kochia (kochia; [7]): 100 | Plant response rating (0 = no effect, 100 = complete control), Nutsedge, Yellow (yellow nutsedge; 62 g ai/ha, preemergence): 0 | Plant response rating, Nutsedge, Yellow (yellow nutsedge; [3]): 0 | Plant response rating, Nutsedge, Yellow (yellow nutsedge; [4]): 0 | Nutsedge, Yellow plant response rating (yellow nutsedge; Postemergence, scale 0 to 100): 30 | Plant response rating, Nutsedge, Yellow (yellow nutsedge; [9]): 30 | Nutsedge, Yellow plant response rating (yellow nutsedge; [10]): 0 | Plant response rating, Nutsedge, Yellow (yellow nutsedge; [7]): 20 | Plant response rating (0 = no effect, 100 = complete control), Soybean (soybean; 62 g ai/ha, preemergence): 0 | Plant response rating, Soybean (soybean; [3]): 0 | Plant response rating, Soybean (soybean; [4]): 10 | Soybean plant response rating (soybean; Postemergence, scale 0 to 100): 100 | Plant response rating, Soybean (soybean; [9]): 100 | Soybean plant response rating (soybean; [10]): 20 | Plant response rating, Soybean (soybean; [7]): 100 | Ducksalad plant response rating (ducksalad; 62 g ai/ha, scale 0 to 100 (0 no effect, 100 complete control)): 0 | Ducksalad plant response rating (ducksalad; 125 g ai/ha, scale of 0 to 100, 0 is no effect, 100 is complete control): 70 | Plant response rating, Ducksalad (ducksalad; 250 g ai/ha, visual rating after 12 to 14 days, scale 0 to 100 (0 no effect, 100 complete control)): 80 | Plant response rating, Ducksalad (ducksalad; 500 g ai/ha, visual rating after 12 to 14 days, scale 0 to 100 (0 no effect, 100 complete control)): 80

CCn1nc(C(C)(C)C)cc1C(=O)Nc1cccc2c1CN(C)C2=O [Compound 55, N-(2,3-dihydro-2-methyl-1-oxo-1H-isoindol-4-yl)-3-(1,1-dimethylethyl)-1-ethyl-1H-pyrazole-5-carboxamide]
pest or weed control at 2000 g/ha (velvetleaf [1]; Abutilon theophrasti, post-emergence, 240 h, Postemergence, 2000 g ai/ha, 0 to 100 scale, 0 no effect, 100 complete control, read-out: Plant response rating, Velvetleaf): 40% | pest or weed control at 500 g/ha (velvetleaf [1]; Abutilon theophrasti, pre-emergence, 240 h, Preemergence, 500 g ai/ha, visual rating, 0 to 100 scale (0 no effect, 100 complete control), read-out: Velvetleaf plant response rating): 20% | pest or weed control at 2000 g/ha (velvetleaf [1]; Abutilon theophrasti, pre-emergence, 240 h, Preemergence, 2000 g ai/ha, 0 to 100 scale, 0 no effect, 100 complete control, read-out: Velvetleaf plant response rating): 70% | pest or weed control at 500 g/ha (velvetleaf [2]; post-emergence, Postemergence, 500 g ai/ha, visual rating after 13 to 15 days, scale 0 (no effect) to 100 (complete control), read-out: Plant response rating, Velvetleaf): 40% | pest or weed control at 125 g/ha (velvetleaf [2]; post-emergence, postemergence, 125 g ai/ha, visual rating, scale 0 (no effect) to 100 (complete control), read-out: Velvetleaf plant response rating): 20% | pest or weed control at 500 g/ha (velvetleaf [2]; pre-emergence, Preemergence, 500 g ai/ha, scale 0 to 100, read-out: Velvetleaf plant response rating): 30% | pest or weed control at 125 g/ha (velvetleaf [2]; pre-emergence, preemergence, 125 g ai/ha, 0 to 100 scale, 0 is no effect, 100 is complete control, read-out: Plant response rating, Velvetleaf): 0% | Plant response rating (0 = no effect, 100 = complete control), Bermudagrass (bermudagrass; 62 g ai/ha, preemergence): 60 | pest or weed control at 125 g/ha (bermudagrass; Cynodon dactylon, pre-emergence, 312 h, 125 g ai/ha, scale 0 (no effect) to 100 (complete control), visual, 12 to 14 days, read-out: Plant response rating, Bermudagrass): 100% | pest or weed control at 250 g/ha (bermudagrass; Cynodon dactylon, pre-emergence, 312 h, 250 g ai/ha, scale 0 to 100 (0 no effect, 100 complete control), visual, 12 to 14 days, read-out: Plant response rating, Bermudagrass): 100% | pest or weed control at 500 g/ha (bermudagrass; Cynodon dactylon, pre-emergence, 312 h, Preemergence, 500 g ai/ha, scale 0 to 100, 0 no effect, 100 complete control, read-out: Bermudagrass plant response rating): 100% | Plant response rating (0 = no effect, 100 = complete control), Cocklebur (cocklebur; 62 g ai/ha, preemergence): 0 | pest or weed control at 125 g/ha (cocklebur; Xanthium strumarium, pre-emergence, 312 h, 125 g ai/ha, scale 0 (no effect) to 100 (complete control), visual, 12 to 14 days, read-out: Plant response rating, Cocklebur): 0% | pest or weed control at 250 g/ha (cocklebur; Xanthium strumarium, pre-emergence, 312 h, 250 g ai/ha, scale 0 to 100 (0 no effect, 100 complete control), visual, 12 to 14 days, read-out: Plant response rating, Cocklebur): 0% | pest or weed control at 500 g/ha (cocklebur; Xanthium strumarium, pre-emergence, 312 h, Preemergence, 500 g ai/ha, scale 0 to 100, 0 no effect, 100 complete control, read-out: Cocklebur plant response rating): 0% | Plant response rating (0 = no effect, 100 = complete control), Crabgrass, Large (large crabgrass; 62 g ai/ha, preemergence): 15 | pest or weed control at 125 g/ha (large crabgrass; Digitaria sanguinalis, pre-emergence, 312 h, 125 g ai/ha, scale 0 (no effect) to 100 (complete control), visual, 12 to 14 days, read-out: Plant response rating, Crabgrass, Large): 90% | pest or weed control at 250 g/ha (large crabgrass; Digitaria sanguinalis, pre-emergence, 312 h, 250 g ai/ha, scale 0 to 100 (0 no effect, 100 complete control), visual, 12 to 14 days, read-out: Plant response rating, Crabgrass, Large): 95% | Crabgrass, Large plant response rating (large crabgrass; [10]): 100 | Plant response rating (0 = no effect, 100 = complete control), Kochia (kochia; 62 g ai/ha, preemergence): 25 | pest or weed control at 125 g/ha (kochia; Bassia scoparia, pre-emergence, 125 g ai/ha, scale 0 (no effect) to 100 (complete control), visual, 12 to 14 days, read-out: Plant response rating, Kochia): 80% | pest or weed control at 250 g/ha (kochia; Bassia scoparia, pre-emergence, 250 g ai/ha, scale 0 to 100 (0 no effect, 100 complete control), visual, 12 to 14 days, read-out: Plant response rating, Kochia): 100% | Kochia plant response rating (kochia; [10]): 100 | Plant response rating (0 = no effect, 100 = complete control), Nutsedge, Yellow (yellow nutsedge; 62 g ai/ha, preemergence): 0 | pest or weed control at 125 g/ha (yellow nutsedge; Cyperus, pre-emergence, 125 g ai/ha, scale 0 (no effect) to 100 (complete control), visual, 12 to 14 days, read-out: Plant response rating, Nutsedge, Yellow): 0% | pest or weed control at 250 g/ha (yellow nutsedge; Cyperus, pre-emergence, 250 g ai/ha, scale 0 to 100 (0 no effect, 100 complete control), visual, 12 to 14 days, read-out: Plant response rating, Nutsedge, Yellow): 0% | Nutsedge, Yellow plant response rating (yellow nutsedge; [10]): 10 | Plant response rating (0 = no effect, 100 = complete control), Soybean (soybean; 62 g ai/ha, preemergence): 0 | plant injury at 125 g/ha (soybean; Glycine max, pre-emergence, 125 g ai/ha, scale 0 (no effect) to 100 (complete control), visual, 12 to 14 days, read-out: Plant response rating, Soybean): 0% | plant injury at 250 g/ha (soybean; Glycine max, pre-emergence, 250 g ai/ha, scale 0 to 100 (0 no effect, 100 complete control), visual, 12 to 14 days, read-out: Plant response rating, Soybean): 0% | Soybean plant response rating (soybean; [10]): 20 | pest or weed control at 62 g/ha (ducksalad; Heteranthera limosa, 62 g ai/ha, scale 0 to 100 (0 no effect, 100 complete control), read-out: Ducksalad plant response rating): 0% | pest or weed control at 125 g/ha (ducksalad; Heteranthera limosa, 125 g ai/ha, scale of 0 to 100, 0 is no effect, 100 is complete control, read-out: Ducksalad plant response rating): 0% | pest or weed control at 250 g/ha (ducksalad; Heteranthera limosa, 250 g ai/ha, scale of 0 to 100, 0 is no effect, 100 is complete control, read-out: Ducksalad plant response rating): 55% | pest or weed control at 500 g/ha (ducksalad; Heteranthera limosa, 500 g ai/ha, visual rating after 12 to 14 days, scale 0 to 100 (0 no effect, 100 complete control), read-out: Plant response rating, Ducksalad): 80%
